# Laboratory results reported in US20100137315A1, “Sphingosine Kinase Inhibitors and Methods of Their Use” (APOGEE BIOTECHNOLOGY CORPORATION, priority 2005, published 2010).
# What was measured:
# [1] = test system: endogenous SK in MDA-MB-231 human breast carcinoma cells; assay: Intact cell assay of endogenous SK ([3H]sphingosine to [3H]S1P); assay type: cell-based; details: MDA-MB-231 cells, 20 μg/ml compound
# Description: We have previously described an intact cell assay where, following treatment with a test compound, MDA-MB-231 human breast carcinoma cells are incubated with [^3H]sphingosine at a final concentration of 1 μM (French et al., 2003, Cancer Res 63: 5962). The cells take up the exogenous [^3H]sphingosine and convert it to [^3H]S1P through the action of endogenous SK. The resulting [^3H]S1P is isolated via charge-based separation as indicated above. […] For potency studies, MDA-MB-231 cells were exposure to varying concentrations of a test Compound and then assayed for conversion of [^3H]sphingosine to [^3H]S1P.
# [2] = test system: MCF-7 human breast adenocarcinoma cells; assay: Cytotoxicity, SRB assay, 48 h; assay type: cell-based; details: Homo sapiens, MCF7; Table 6; 48 h, SRB, inhibition of cell proliferation; read-out: MCF-7 IC50
# Description: To further assess the biological efficacies of the Compounds in intact cells, each Compound was evaluated for cytotoxicity using human cancer cell lines. These experiments followed methods that have been extensively used. Cell lines tested included MCF-7 human breast adenocarcinoma cells. The indicated cell lines were treated with varying doses of the test Compound for 48 h. Cell survival was then determined using the SRB binding assay (Skehan et al., 1990, J Natl Cancer Inst 82: 1107), and the concentration of compound that inhibited proliferation by 50% (the IC50) was calculated. Values (in μM) represent the mean±sd for replicate trials.
# recombinant human SK [3] = target: T1, recombinant human SK (Homo sapiens, UniProt Q9NYA1); assay: Inhibition of recombinant human SK, LC/MS/MS assay; assay type: biochemical; details: 6 μg/ml compound
# T1 construct: glutathione-S-transferase (GST) (N); made in house; host or cells: bacteria (pGEX vector)
# T1 sequence (Q9NYA1 whole entry): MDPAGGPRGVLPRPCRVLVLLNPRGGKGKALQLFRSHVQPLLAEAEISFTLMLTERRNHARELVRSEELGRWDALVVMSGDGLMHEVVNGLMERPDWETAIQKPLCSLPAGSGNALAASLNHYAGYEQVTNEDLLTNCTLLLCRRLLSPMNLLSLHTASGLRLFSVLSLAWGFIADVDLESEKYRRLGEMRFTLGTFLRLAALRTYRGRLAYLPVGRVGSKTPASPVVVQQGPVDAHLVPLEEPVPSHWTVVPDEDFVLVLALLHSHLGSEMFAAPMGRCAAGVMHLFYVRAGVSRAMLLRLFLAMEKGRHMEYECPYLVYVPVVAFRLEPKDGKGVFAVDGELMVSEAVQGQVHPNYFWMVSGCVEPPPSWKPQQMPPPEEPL
# Description: (§1) An assay for identifying inhibitors of recombinant human SK has been established (French et al., 2003, Cancer Res 63: 5962). cDNA for human SK was subcloned into a pGEX bacterial expression vector, which results in expression of the enzyme as a fusion protein with glutathione-S-transferase, and the fusion protein is then purified on a column of immobilized glutathione. SK activity is measured by incubation of the recombinant SK with [^3H]sphingosine and 1 mM ATP under defined conditions, followed by extraction of the assay mixture with chloroform:methanol under basic conditions. […] Radioactivity in aliquots of the aqueous phase is then quantified as a measure of [^3H]S1P formation. There is a low background level of partitioning of [^3H]sphingosine into the aqueous phase, and addition of the recombinant SK greatly increases the formation of [^3H]S1P.
# In an alternate assay procedure, the recombinant human SK was incubated with unlabeled sphingosine and ATP as described above. After 30 minutes, the reactions were terminated by the addition of acetonitrile to directly extract the newly synthesized S1P. The amount of S1P in the samples is then quantified as follows. C17 base D-erythro-sphingosine and C17 S1P are used as internal standards for sphingosine and S1P, respectively. These seventeen-carbon fatty acid-linked sphingolipids are not naturally produced, making these analogs excellent standards. The lipids are then fractionation by High-Performance Liquid Chromatography using a C8-reverse phase column eluted with 1 mM methanolic ammonium formate/2 mM aqueous ammonium formate. A Finnigan LCQ Classic LC-MS/MS is used in the multiple reaction monitoring positive ionization mode to acquire ions at m/z of 300 (precursor ion)→282 (product ion) for sphingosine and 380→264 for S1P. Calibration curves are generated by plotting the peak area ratios of the synthetic standards for each sphingolipid, and used to determine the normalized amounts of sphingosine and S1P in the samples.
# Each Compound of this invention was tested for its ability to inhibit recombinant SK using the LC/MS/MS assay described above. Typically, the Compounds were individually dissolved in dimethylsulfoxide and tested at a final concentration of 6 micrograms/ml.
# recombinant human SK [4] = target: T1, recombinant human SK; assay: Recombinant human SK assay with [3H]sphingosine; assay type: biochemical; details: positive control
# Description: as §1
inhibition at 6 µg/mL (recombinant human SK [3]) [%],SMILES,Cellular S1P (% inhibition) [1] [%],IC50 [2] [µM],concentrations at which SK activity is completely inhibited (recombinant human SK [4])
88,"CCCCCCCCCCCCCCCC(=O)Nc1nc(-c2ccc(Cl)cc2)cs1 [Compound 3, Hexadecanoic acid [4-(4-chloro-phenyl)-thiazol-2-yl]-amide]",34,111,–
30,"CCCCCCCCCCCCCC(=O)Nc1nc(-c2ccc(Cl)cc2)cs1 [Compound 2, Tetradecanoic acid [4-(4-chloro-phenyl)-thiazol-2-yl]-amide]",–,1.9,–
0,"CCCCCCCCC=CCCCCCCCC(=O)Nc1nc(-c2ccc(Cl)cc2)cs1 [Compound 6, Octadec-9-enoic acid [4-(4-chloro-phenyl)-thiazol-2-yl]-amide]",–,105,–
71,"O=C(C=Cc1ccccc1)Nc1nc(-c2ccc(Cl)cc2)cs1 [Compound 7, N-[4-(4-Chloro-phenyl)-thiazol-2-yl]-3-phenyl-acrylamide]",–,18,–
53,"C=CCCCCCCCCC(=O)Nc1nc(-c2ccc(Cl)cc2)cs1 [Compound 4, Undec-10-enoic acid [4-(4-chloro-phenyl)-thiazol-2-yl]-amide]",–,33,–
73,"CCCC(=O)Oc1ccc(C=CC(=O)Nc2nc(-c3ccc(Cl)cc3)cs2)cc1 [Compound 15, Butyric acid 4-{2-[4-(4-chloro-phenyl)-thiazol-2-ylcarbamoyl]-vinyl}-phenyl ester]",–,2.9,–

# The next lines start with the molecule.
SMILES,inhibition at 6 µg/mL (recombinant human SK [3]) [%],Cellular S1P (% inhibition) [1] [%],IC50 [2] [µM],concentrations at which SK activity is completely inhibited (recombinant human SK [4])
"O=C(C=Cc1ccc([N+](=O)[O-])cc1)Nc1nc(-c2ccc(Cl)cc2)cs1 [Compound 5, N-[4-(4-Chloro-phenyl)-thiazol-2-yl]-3-(4-nitro-phenyl)-acrylamide]",0,–,16,–
"COc1cc(C=CC(=O)Nc2nc(-c3ccc(Cl)cc3)cs2)ccc1OC(C)=O [Compound 10, Acetic acid 4-{2-[4-(4-chloro-phenyl)-thiazol-2-ylcarbamoyl]-vinyl}-2-methoxy-phenyl ester]",100,–,24,–
"CCCCCCCCCCCCC/C=C/[C@@H](O)[C@H](CO)N(C)C [DMS, D-erythro-N,N-dimethylsphingosine]",–,–,–,above 25 μM
"CN(C)c1ccc(CNC(=O)c2nc(-c3ccc(Cl)cc3)cs2)cc1 [Compound 35, 4-(4-Chloro-phenyl)-thiazole-2-carboxylic acid 4-dimethylamino-benzylamide]",80,–,130,–
